Measured values taken from article PMC5007552, “The hVps34‐SGK3 pathway alleviates sustained PI3K/Akt inhibition by stimulating mTORC1 and tumour growth” (The EMBO Journal, 2016).

Assays:
[1] = target: T1, SGK3[S486E] (Homo sapiens, UniProt Q96BR1, S486E); assay: SGK3 kinase assay on phospholipid vesicles: phosphorylation of SGK3[S486E] at Thr320 by PDK1 with PtdIns(3)P; format: biochemical; details: in the presence of PtdIns(3)P
T1 construct: host or cells: HEK293
T1 sequence (Q96BR1 1-496 S486E): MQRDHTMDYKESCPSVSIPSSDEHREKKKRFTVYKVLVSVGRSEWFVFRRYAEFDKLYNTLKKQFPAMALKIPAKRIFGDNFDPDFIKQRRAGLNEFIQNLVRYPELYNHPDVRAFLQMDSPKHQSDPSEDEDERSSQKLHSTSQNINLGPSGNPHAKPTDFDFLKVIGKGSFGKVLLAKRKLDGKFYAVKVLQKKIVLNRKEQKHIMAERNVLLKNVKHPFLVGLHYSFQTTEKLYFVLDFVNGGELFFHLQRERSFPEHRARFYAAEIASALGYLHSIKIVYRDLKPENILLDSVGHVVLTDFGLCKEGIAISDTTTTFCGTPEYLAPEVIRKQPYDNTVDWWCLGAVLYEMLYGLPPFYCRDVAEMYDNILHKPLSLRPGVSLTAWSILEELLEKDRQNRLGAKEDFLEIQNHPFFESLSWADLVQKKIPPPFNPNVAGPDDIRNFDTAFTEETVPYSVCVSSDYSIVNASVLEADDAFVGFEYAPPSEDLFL
Procedure: Figure 4 PtdIns(3)P binding to PX domain of SGK3 promotes phosphorylation and activation by PDK1 • A, B SGK3 [S486E]‐GST and SGK3 [R90A S486]‐GST were purified from HEK293 cells transiently overexpressing these enzymes. […] SGK3[S486E]‐GST (A) or the non‐PtdIns(3)P‐binding mutant SGK3[R90A, S486E]‐GST (B) was incubated with lipid vesicles comprising phosphatidylcholine (PC) and phosphatidylserine (PS) containing the indicted concentrations of PtdIns or PtdIns(3)P in the presence or absence of added recombinant PDK1 (50 ng) and kinase reactions were initiated by addition of MgATP. After 30 min at 30°C, PDK1 was inhibited by addition of the 1 μM GSK2334470 PDK1 inhibitor and the reaction mixture was supplemented with 2 μg GST‐NDRG1 SGK3 substrate. After another 30 min at 30°C, the reaction was terminated by addition of SDS sample buffer. The reaction mixtures were subjected to immunoblot analysis with the indicated antibodies.
The result for each kinase is presented as a mean kinase activity of the reaction taken in triplicate relative to a control reaction where the inhibitors were omitted. […] SGK3 was immunoprecipitated from cell lysates and subjected to in vitro kinase assay by measuring phosphorylation of the Crosstide substrate peptide in the presence of 0.1 mM [γ‐^32P]ATP in a 30 min 30°C reaction (upper panel). Kinase reactions are presented as means ± SD for triplicate reaction. […]

[2] = system: ZR-75-1 cells; assay: Immunoblot of Akt/mTORC1 pathway markers (Akt, PRAS40, TSC2, S6K1, Rictor, S6, 4EBP1) in ZR-75-1 cells; format: cell-based, human
Procedure: Kinase reactions are presented as means ± SD for triplicate reaction. Immunoprecipitates (IP) were also analysed by immunoblot with the indicated antibodies. • SGK3 was knocked down in ZR‐75‐1 cells by using shRNA probe B and compared to a control shRNA probe, named sh scramble. After infection, the cells were kept for 2 days in puromycin selection media and then seeded for the experiment. The cells were treated with 1 μM MK‐2206 for 1 h or 5 days. The cell lysates were subjected to immunoblot analysis with the indicated antibodies.
The cell lysates were analysed by immunoblot using the antibody against phosphorylated Akt phosphorylation consensus motif (RxRxxpS/pT).
HEK293 cells were purchased from the American Tissue Culture Collection (ATCC). Cells were cultured in RPMI or DMEM media supplemented with 10% (v/v) foetal bovine serum, 2 mM L‐glutamine, 100 U/ml penicillin and 0.1 mg/ml streptomycin. Inhibitor treatments were carried out as described in figure legends. During 5 days inhibitor treatments, the media was changed after 72‐h intervals. The cells were lysed in buffer containing 50 mM Tris–HCl (pH 7.5), 150 mM NaCl, 1 mM EDTA, 1 mM EGTA, 1 mM sodium orthovanadate, 10 mM sodium glycerophosphate, 10 mM sodium pyrophosphate, 0.27 M sucrose, 0.1% (v/v) 2‐mercaptoethanol, 1 mM benzamidine and 0.1 mM PMSF. Lysates were clarified by centrifugation at 16,000 g for 10 min at 4°C. Protein concentration was calculated using Bradford assay (Thermo Scientific). Immunoblotting and immunoprecipitation were performed using standard procedures. The signal was developed using ECL Western Blotting Detection Kit (Amersham) on Amersham Hyperfilm ECL film (Amersham).

[3] = target: MLK3 (Homo sapiens, UniProt Q16584); assay: IC50 on recombinant MLK3; format: biochemical; details: Fig 5B / Appendix Fig S1B, recombinant kinase, unit inferred
MLK3, sequence (Q16584 whole entry, species assumed): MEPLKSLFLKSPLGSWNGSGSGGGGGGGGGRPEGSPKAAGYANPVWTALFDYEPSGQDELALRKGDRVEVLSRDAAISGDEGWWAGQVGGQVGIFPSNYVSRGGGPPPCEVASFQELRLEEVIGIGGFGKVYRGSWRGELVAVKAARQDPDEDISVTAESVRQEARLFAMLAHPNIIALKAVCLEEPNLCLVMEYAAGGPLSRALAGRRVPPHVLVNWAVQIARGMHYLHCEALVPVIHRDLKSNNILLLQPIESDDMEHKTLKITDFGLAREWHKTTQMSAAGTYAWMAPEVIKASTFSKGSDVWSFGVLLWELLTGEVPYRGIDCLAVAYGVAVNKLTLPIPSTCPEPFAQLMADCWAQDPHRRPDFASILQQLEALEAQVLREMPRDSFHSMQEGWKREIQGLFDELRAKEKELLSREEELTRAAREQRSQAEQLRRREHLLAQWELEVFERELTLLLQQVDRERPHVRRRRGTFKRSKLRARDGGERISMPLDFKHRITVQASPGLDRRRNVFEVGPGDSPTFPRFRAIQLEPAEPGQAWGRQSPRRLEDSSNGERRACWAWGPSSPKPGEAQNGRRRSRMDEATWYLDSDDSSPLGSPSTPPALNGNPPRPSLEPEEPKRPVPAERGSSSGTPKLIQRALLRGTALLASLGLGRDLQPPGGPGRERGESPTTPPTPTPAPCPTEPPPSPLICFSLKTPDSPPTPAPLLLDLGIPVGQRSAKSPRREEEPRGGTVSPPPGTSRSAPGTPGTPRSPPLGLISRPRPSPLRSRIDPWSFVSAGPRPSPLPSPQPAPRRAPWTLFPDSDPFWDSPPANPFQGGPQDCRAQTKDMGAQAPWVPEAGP
Procedure: The result for each kinase is presented as a mean kinase activity of the reaction taken in triplicate relative to a control reaction where the inhibitors were omitted. […] SGK3 was immunoprecipitated from cell lysates and subjected to in vitro kinase assay by measuring phosphorylation of the Crosstide substrate peptide in the presence of 0.1 mM [γ‐^32P]ATP in a 30 min 30°C reaction (upper panel). Kinase reactions are presented as means ± SD for triplicate reaction.
Appendix Figure S1. […] (A) Chemical struc tures of
Sano/f_i-14g, -14i and -14n compounds. (B) IC50 values of inhibitors on indicated recombinant k inases. […]

[4] = 1–3 μM 14h, 1 h, ZR-75-1 in serum
[5] = ZR-75-1, 5 days GDC0941 or MK-2206, then 3 μM 14h 1 h

concentration of near maximal inhibition of PDK1 phosphorylating SGK3[S486E] at Thr320 [1]: 0.1 µM | IC50 [3]: 84 nM
SMILES: Nc1n[nH]c2nc(-c3ccc(NS(=O)(=O)c4cc(Cl)ccc4Cl)cc3)cnc12 [14h]
S6K1 and S6 protein phosphorylation ([2]; 10 μM 14h, 1 h, ZR-75-1 in serum): moderate reduction | PRAS40 (Akt-specific substrate) phosphorylation [2, 4]: not dephosphorylated | Rictor (Thr1135) and S6 protein (Ser240/244) phosphorylation [2, 4]: failed to significantly inhibit | 4EBP1 phosphorylation [2, 5]: not markedly reduced | TSC2 phosphorylation [2, 5]: suppressed phosphorylation of TSC2 | TSC2, S6K1, Rictor, S6 protein or 4EBP1 phosphorylation or S6K1 activity ([2]; ZR-75-1 in serum without prolonged PI3K or Akt inhibitor treatment, 3 μM 14h): did not inhibit
